Experimental data as given in patent US20080274892A1, “Novel Haloalkylsulfonanilide Derivative, Herbicide, and Method of Use Thereof” (priority 2005, published 2008).

Columns and labels:
bulrush [1] = assay: Test Example 1: herbicidal efficacy on rice paddy weeds pre-emergence; assay type: in vivo, Scirpus juncoides; details: 21 days
false pimpernel [2] = assay: as above; assay type: in vivo, Lindernia pyxidaria; details: 21 days
barnyard glass = assay: Test Example 2: herbicidal efficacy on rice paddy weeds post-emergence; assay type: in vivo, Echinochloa crus-galli; details: post-emergence, one leaf stage, 21 days after treatment
In short: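 Efficacy on paddy weeds was scored on a 0 to 4 growth-inhibition scale: 4 for 90%-100%, 3 for 70%-89%, 2 for 40%-69%, 1 for 1%-39% and 0 for 0%. Barnyard glass was grown in clay loam in 75 cm^2 pots under 5 cm of water in a hot house. It was compared with untreated pots 21 days after treatment.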

bulrush [3] = assay: as above; assay type: in vivo, Scirpus juncoides; details: post-emergence, one leaf stage, 21 days after treatment
false pimpernel [4] = assay: as above; assay type: in vivo, Lindernia pyxidaria; details: post-emergence, one leaf stage, 21 days after treatment
[5] = test system: paddy rice plant (cultivar: Nihonbare); assay: Test Example 3: phytotoxicity test for transplanted paddy rice plant; assay type: in vivo; details: transplanted rice, 21 days after treatment
In short: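 Clay loam soil was placed in a 75 cm^2 plastic pot and flooded to a water depth of 5 cm. Two Nihonbare paddy rice plants at the two-leaf stage were transplanted 1 cm deep and grown in a hot house. After treatment, pots stayed in the hot house for 21 days, and phytotoxicity was then graded against an untreated control.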

[6] = dosage 1000 g/ha, treated 5 days after transplantation

Structure (SMILES)	Bulrush pre (herbicidal efficacy grade) (bulrush [1]; dosage 300 g/ha)	False pimpernel pre (herbicidal efficacy grade) (false pimpernel [2]; dosage 300 g/ha)	Burnyard grass post (herbicidal efficacy grade) (barnyard glass; dosage 300 g/ha)	Bulrush post (herbicidal efficacy grade) (bulrush [3]; dosage 300 g/ha)	False pimpernel post (herbicidal efficacy grade) (false pimpernel [4]; dosage 300 g/ha)	Phytotoxicity to paddy rice ([5]; dosage 300 g/ha)	Bulrush pre (herbicidal efficacy grade) (bulrush [1]; dosage 1000 g/ha)	False pimpernel pre (herbicidal efficacy grade) (false pimpernel [2]; dosage 1000 g/ha)	Burnyard grass post (herbicidal efficacy grade) (barnyard glass; dosage 1000 g/ha)	Bulrush post (herbicidal efficacy grade) (bulrush [3]; dosage 1000 g/ha)	False pimpernel post (herbicidal efficacy grade) (false pimpernel [4]; dosage 1000 g/ha)	Phytotoxicity to paddy rice [5, 6]	other results
O=C1OC(COc2ccccc2)CN1Cc1ccccc1NS(=O)(=O)C(F)(F)F (racemic) [Compound 1-51]	3 (70%-89% of herbicidal efficacy or phytotoxicity)	4 (90%-100% of herbicidal efficacy or phytotoxicity)	0 (0% of herbicidal efficacy or phytotoxicity)	4 (90%-100% of herbicidal efficacy or phytotoxicity)	3 (70%-89% of herbicidal efficacy or phytotoxicity)	0 (0% of herbicidal efficacy or phytotoxicity)	–	–	–	–	–	–	–
CC(C)COC(=O)N(c1ccccc1CN1CC(C)(COc2ccccc2)OC1=O)S(=O)(=O)C(F)(F)F (stereo not drawn) [Compound 1-158]	–	–	–	–	–	–	4 (90%-100% of herbicidal efficacy or phytotoxicity)	4 (90%-100% of herbicidal efficacy or phytotoxicity)	4 (90%-100% of herbicidal efficacy or phytotoxicity)	4 (90%-100% of herbicidal efficacy or phytotoxicity)	4 (90%-100% of herbicidal efficacy or phytotoxicity)	1 (1%-39% of herbicidal efficacy or phytotoxicity)	–
CC(C)C1COC(=O)N1Cc1ccccc1NS(=O)(=O)C(F)(F)F (stereo not drawn) [Compound 1-9]	4 (90%-100% of herbicidal efficacy or phytotoxicity)	4 (90%-100% of herbicidal efficacy or phytotoxicity)	4 (90%-100% of herbicidal efficacy or phytotoxicity)	4 (90%-100% of herbicidal efficacy or phytotoxicity)	2 (40%-69% of herbicidal efficacy or phytotoxicity)	2 (40%-69% of herbicidal efficacy or phytotoxicity)	–	–	–	–	–	–	–
CCCC1COC(=O)N1Cc1ccccc1NS(=O)(=O)C(F)(F)F (stereo not drawn) [Compound 1-7]	4 (90%-100% of herbicidal efficacy or phytotoxicity)	4 (90%-100% of herbicidal efficacy or phytotoxicity)	1 (1%-39% of herbicidal efficacy or phytotoxicity)	4 (90%-100% of herbicidal efficacy or phytotoxicity)	2 (40%-69% of herbicidal efficacy or phytotoxicity)	1 (1%-39% of herbicidal efficacy or phytotoxicity)	–	–	–	–	–	–	–
CC1(C)OC(=O)N(Cc2ccccc2NS(=O)(=O)C(F)(F)F)C1(C)C [Compound 1-73]	–	–	–	–	–	–	4 (90%-100% of herbicidal efficacy or phytotoxicity)	4 (90%-100% of herbicidal efficacy or phytotoxicity)	4 (90%-100% of herbicidal efficacy or phytotoxicity)	4 (90%-100% of herbicidal efficacy or phytotoxicity)	4 (90%-100% of herbicidal efficacy or phytotoxicity)	4 (90%-100% of herbicidal efficacy or phytotoxicity)	–
Cc1c(Cl)ccc(OC(C)C(=O)N(c2ccccc2CN2CC(C)(C)OC2=O)S(=O)(=O)C(F)(F)F)c1Cl (stereo not drawn) [Compound 1-139]	4 (90%-100% of herbicidal efficacy or phytotoxicity)	4 (90%-100% of herbicidal efficacy or phytotoxicity)	3 (70%-89% of herbicidal efficacy or phytotoxicity)	4 (90%-100% of herbicidal efficacy or phytotoxicity)	4 (90%-100% of herbicidal efficacy or phytotoxicity)	3 (70%-89% of herbicidal efficacy or phytotoxicity)	–	–	–	–	–	–	–
CCCCC1(C)CN(Cc2ccccc2N(C(=O)OC)S(=O)(=O)C(F)(F)F)C(=O)O1 (stereo not drawn) [Compound 1-128]	–	–	–	–	–	–	–	–	–	–	–	–	Bulrush pre (herbicidal efficacy grade) (bulrush [1]; dosage 100 g/ha): 2 (40%-69% of herbicidal efficacy or phytotoxicity); False pimpernel pre (herbicidal efficacy grade) (false pimpernel [2]; dosage 100 g/ha): 4 (90%-100% of herbicidal efficacy or phytotoxicity); Burnyard grass post (herbicidal efficacy grade) (barnyard glass; dosage 100 g/ha): 3 (70%-89% of herbicidal efficacy or phytotoxicity); Bulrush post (herbicidal efficacy grade) (bulrush [3]; dosage 100 g/ha): 3 (70%-89% of herbicidal efficacy or phytotoxicity); False pimpernel post (herbicidal efficacy grade) (false pimpernel [4]; dosage 100 g/ha): 2 (40%-69% of herbicidal efficacy or phytotoxicity); Phytotoxicity to paddy rice ([5]; dosage 100 g/ha as printed in the table line): 1 (1%-39% of herbicidal efficacy or phytotoxicity)
O=C1OC2(CCCCC2)CN1Cc1ccccc1NS(=O)(=O)C(F)(F)F [Compound 1-45]	–	–	–	–	–	–	4 (90%-100% of herbicidal efficacy or phytotoxicity)	4 (90%-100% of herbicidal efficacy or phytotoxicity)	4 (90%-100% of herbicidal efficacy or phytotoxicity)	4 (90%-100% of herbicidal efficacy or phytotoxicity)	4 (90%-100% of herbicidal efficacy or phytotoxicity)	2 (40%-69% of herbicidal efficacy or phytotoxicity)	–
O=C1OC2CCCCC2N1Cc1ccccc1NS(=O)(=O)C(F)(F)F (stereo not drawn) [Compound 1-47]	–	–	–	–	–	–	4 (90%-100% of herbicidal efficacy or phytotoxicity)	4 (90%-100% of herbicidal efficacy or phytotoxicity)	4 (90%-100% of herbicidal efficacy or phytotoxicity)	4 (90%-100% of herbicidal efficacy or phytotoxicity)	4 (90%-100% of herbicidal efficacy or phytotoxicity)	2 (40%-69% of herbicidal efficacy or phytotoxicity)	–
COCC1CN(Cc2ccccc2N(C(=O)OCC(C)C)S(=O)(=O)C(F)(F)F)C(=O)O1 (stereo not drawn) [Compound 1-36]	–	–	–	–	–	–	4 (90%-100% of herbicidal efficacy or phytotoxicity)	4 (90%-100% of herbicidal efficacy or phytotoxicity)	4 (90%-100% of herbicidal efficacy or phytotoxicity)	4 (90%-100% of herbicidal efficacy or phytotoxicity)	4 (90%-100% of herbicidal efficacy or phytotoxicity)	1 (1%-39% of herbicidal efficacy or phytotoxicity)	–
CC(C)COC(=O)N(c1ccccc1CN1CC(C)(C(C)(C)C)OC1=O)S(=O)(=O)C(F)(F)F (stereo not drawn) [Compound 1-70]	–	–	–	–	–	–	4 (90%-100% of herbicidal efficacy or phytotoxicity)	4 (90%-100% of herbicidal efficacy or phytotoxicity)	4 (90%-100% of herbicidal efficacy or phytotoxicity)	4 (90%-100% of herbicidal efficacy or phytotoxicity)	4 (90%-100% of herbicidal efficacy or phytotoxicity)	1 (1%-39% of herbicidal efficacy or phytotoxicity)	–
